Test results taken from ChEMBL document CHEMBL1821555, “Identification of a series of 4-[3-(quinolin-2-yl)-1,2,4-oxadiazol-5-yl]piperazinyl ureas as potent smoothened antagonist hedgehog pathway inhibitors” (Bioorg Med Chem Lett, 2011).

Columns and labels:
[1] = target: T1, Protein smoothened (Homo sapiens, UniProt Q99835); test: Displacement of Bodipy-labelled cyclopamine from Smo expressed in COS-1 cells in presence of 2% FBS after 4 to 6 hrs by FACS flow cytometric analysis; assay type: cell-based
T1 sequence (Q99835 whole entry): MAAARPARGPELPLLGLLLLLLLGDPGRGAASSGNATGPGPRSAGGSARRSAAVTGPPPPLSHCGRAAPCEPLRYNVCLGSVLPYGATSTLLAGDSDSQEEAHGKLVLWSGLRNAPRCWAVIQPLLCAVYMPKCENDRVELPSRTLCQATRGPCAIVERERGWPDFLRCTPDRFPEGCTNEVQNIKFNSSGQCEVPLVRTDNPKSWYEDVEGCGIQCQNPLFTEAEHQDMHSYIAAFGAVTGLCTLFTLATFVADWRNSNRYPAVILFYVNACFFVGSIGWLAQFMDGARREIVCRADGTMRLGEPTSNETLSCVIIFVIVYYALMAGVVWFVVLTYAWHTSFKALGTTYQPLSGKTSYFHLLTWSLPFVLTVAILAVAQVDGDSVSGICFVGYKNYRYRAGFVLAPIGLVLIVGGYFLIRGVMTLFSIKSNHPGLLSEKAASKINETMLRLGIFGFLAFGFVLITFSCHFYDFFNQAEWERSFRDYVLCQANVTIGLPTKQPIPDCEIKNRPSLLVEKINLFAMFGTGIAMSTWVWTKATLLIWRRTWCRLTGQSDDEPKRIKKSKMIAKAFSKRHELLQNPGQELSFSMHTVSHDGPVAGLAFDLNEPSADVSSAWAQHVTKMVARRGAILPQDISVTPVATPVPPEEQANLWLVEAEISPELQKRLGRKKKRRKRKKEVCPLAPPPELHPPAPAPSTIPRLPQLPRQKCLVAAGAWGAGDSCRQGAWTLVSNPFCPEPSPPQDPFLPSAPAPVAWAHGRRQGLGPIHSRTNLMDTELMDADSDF

[2] = target: T1, Protein smoothened; test: Inhibition of Bodipy-labelled cyclopamine binding to Smo expressed in COS-1 cells in presence of 20% NHS after 4 to 6 hrs by FACS flow cytometric analysis; assay type: cell-based
[3] = tested on: Shh Light II; test: Inhibition of Shh signaling in mouse Shh-light2 cells by Gli-dependent firefly luciferase reporter gene assay; assay type: functional, cell-based
[4] = Oral bioavailability in rat; assay type: ADME, organism-based; conditions: in vivo
[5] = Fraction unbound in rat plasma; assay type: ADME, cell-free
[6] = Terminal half life in rat; assay type: ADME, organism-based; conditions: in vivo, read-out: beta t1/2 (converted)
[7] = Clearance in rat; assay type: ADME, organism-based; conditions: in vivo
[8] = Intrinsic clearance in rat liver microsomes assessed per mg of protein; assay type: ADME, Microsome

SMILES	IC50 [1]	IC50 [3]	further results
N#Cc1ccc(Cl)c(NC(=O)N2CCC(c3nc(-c4ccc5ccccc5n4)no3)CC2)c1	320 nM		IC50 [2]: > 2500 nM
Cn1c(-c2noc(N3CCN(C(=O)NC4CCC(F)(F)CC4)CC3)n2)nc2ccccc21	7 nM		IC50 [2]: 25 nM
O=C(Nc1ncccc1Cl)N1CCC(c2nc(-c3ccc4ccccc4n3)no2)CC1	> 2500 nM	2800 nM	
O=C(Nc1ccccc1Cl)N1CCC(c2nc(-c3ccc4ncccc4n3)no2)CC1	> 2500 nM		
CC1CN(C(=O)Nc2ccccc2Cl)CCC1c1nc(-c2ccc3ccccc3n2)no1 (mixture of isomers)	790 nM	680 nM	
O=C(NC1CCC(F)(F)CC1)N1CCC(c2nc(-c3ccc4ccccc4n3)no2)CC1	480 nM		IC50 [2]: 1500 nM
COc1ccccc1NC(=O)N1CCC(c2nc(-c3cccnc3)no2)CC1	> 2500 nM		
Cc1ccccc1NC(=O)N1CCC(c2nc(-c3ccc4ccccc4n3)no2)CC1	510 nM	440 nM	
COc1cc(-c2noc(C3CCN(C(=O)Nc4ccccc4Cl)CC3)n2)nc2ccccc12	> 2500 nM		IC50 [2]: > 2500 nM
COc1ccccc1NC(=O)N1CCC(c2nc(-c3cnccn3)no2)CC1	> 2500 nM		
O=C(NC1CCCC1)N1CCC(c2nc(-c3ccc4ccccc4n3)no2)CC1	420 nM	630 nM	
O=C(Nc1ccccc1C(F)(F)F)N1CCC(c2nc(-c3ccc4ccccc4n3)no2)CC1	340 nM	700 nM	
O=C(Nc1cccc2cccnc12)N1CCC(c2nc(-c3ccc4ccccc4n3)no2)CC1	1300 nM	1400 nM	
O=C(Nc1cccnc1Cl)N1CCC(c2nc(-c3ccc4ccccc4n3)no2)CC1	1500 nM	1600 nM	
N#Cc1ccccc1NC(=O)N1CCC(c2nc(-c3ccc4ccccc4n3)no2)CC1	490 nM	190 nM	
Cn1c(-c2noc(C3CCN(C(=O)NC4CCCCC4)CC3)n2)nc2ccccc21	350 nM	89 nM	IC50 [2]: 1100 nM; bioavailability [4]: 59%; fraction unbound [5]: 0.02; half-life [6]: 1.3 h; clearance [7]: 26 mL/min/kg; microsomal CLint [8]: 192 µL/min/mg
O=C(c1ccccc1Cl)N1CCC(c2nc(-c3ccc4ccccc4n3)no2)CC1	> 2500 nM		
COc1ccccc1NC(=O)N1CCC(c2nc(-c3ccc4ccccc4n3)no2)CC1	180 nM	410 nM	
O=C(Nc1ccccc1Cl)N1CCC(c2nc(-c3ncc4ccccc4n3)no2)CC1	> 2500 nM		

SMILES	IC50 [1]	IC50 [3]	further results
N#Cc1ccc(NC(=O)N2CCC(c3nc(-c4ccc5ccccc5n4)no3)CC2)c(Cl)c1	1900 nM		
O=C(Nc1ccccc1Cl)N1CCC(c2nc(-c3cnc4ccccc4n3)no2)CC1	1100 nM		
O=C(Nc1ccccc1Cl)N1CCC(O)(c2nc(-c3ccc4ccccc4n3)no2)CC1	2100 nM	1300 nM	
O=C(Nc1ccccc1Cl)N1CCC(c2nc(-c3ccc4ccncc4n3)no2)CC1	> 2500 nM		
CC(C)c1ccccc1NC(=O)N1CCC(c2nc(-c3ccc4ccccc4n3)no2)CC1	350 nM	480 nM	
O=C(Nc1ccccc1Cl)N1CCC(c2nc(-c3ccccc3)no2)CC1	> 2500 nM		
COc1ccccc1NC(=O)N1CCC(c2nc(-c3nccc4ccccc34)no2)CC1	> 2500 nM		
COc1cccc2ccc(-c3noc(C4CCN(C(=O)Nc5ccccc5Cl)CC4)n3)nc12	> 2500 nM		
Cn1c(-c2noc(C3CCN(C(=O)NC4CCS(=O)(=O)CC4)CC3)n2)nc2ccccc21	690 nM	350 nM	IC50 [2]: 760 nM
COc1cccc(NC(=O)N2CCC(c3nc(-c4ccc5ccccc5n4)no3)CC2)c1	220 nM	410 nM	
C[C@H]1C[C@H](c2nc(-c3ccc4ccccc4n3)no2)CCN1C(=O)Nc1ccccc1Cl	640 nM	900 nM	
O=C(OC1CCCCC1)N1CCC(c2nc(-c3ccc4ccccc4n3)no2)CC1	280 nM	580 nM	
Clc1ccccc1CN1CCC(c2nc(-c3ccc4ccccc4n3)no2)CC1	> 2500 nM		
COc1cccc2nc(-c3noc(C4CCN(C(=O)Nc5ccccc5Cl)CC4)n3)ccc12	> 2500 nM		IC50 [2]: > 2500 nM
CS(=O)(=O)c1ccc(Cl)c(NC(=O)N2CCC(c3nc(-c4ccc5ccccc5n4)no3)CC2)c1	1200 nM		IC50 [2]: > 2500 nM
O=C(Nc1ccccc1Cl)N1CCC(c2nc(-c3nccc4ccccc34)no2)CC1	> 2500 nM		
O=C(Nc1ccccc1Cl)N1CCC(c2nc(-c3ncccn3)no2)CC1	> 2500 nM		
COc1cc2ccccc2nc1-c1noc(C2CCN(C(=O)Nc3ccccc3Cl)CC2)n1	> 2500 nM		IC50 [2]: > 2500 nM
O=C(NCC1CCC1)N1CCC(c2nc(-c3ccc4ccccc4n3)no2)CC1	750 nM	410 nM	
